Results published in ChEMBL document CHEMBL1133008, “AMP deaminase inhibitors. 2. Initial discovery of a non-nucleotide transition-state inhibitor series” (J Med Chem, 2000).

molecular target: T1, Adenosine deaminase (Bos taurus, UniProt P56658); assay: Evaluated for the inhibition of calf intestinal Adenosine deaminase (ADA)
T1 sequence (P56658 whole entry): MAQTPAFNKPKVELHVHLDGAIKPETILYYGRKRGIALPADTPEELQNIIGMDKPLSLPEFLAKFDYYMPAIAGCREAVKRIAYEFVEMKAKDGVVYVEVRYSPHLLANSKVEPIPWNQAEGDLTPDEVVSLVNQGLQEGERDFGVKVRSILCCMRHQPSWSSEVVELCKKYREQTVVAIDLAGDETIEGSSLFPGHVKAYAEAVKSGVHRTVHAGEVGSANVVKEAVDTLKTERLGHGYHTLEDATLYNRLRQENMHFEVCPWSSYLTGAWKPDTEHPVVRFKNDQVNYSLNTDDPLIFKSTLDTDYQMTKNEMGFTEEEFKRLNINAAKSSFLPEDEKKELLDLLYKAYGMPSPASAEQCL

Structure (SMILES) | Ki [µM]
O=C(O)C(CCCCn1cnc2c1NC=NCC2O)(c1ccccc1)c1ccccc1 (centres undefined) | > 7.5
OCCCCCCn1cnc2c1N=CNCC2O (centres undefined) | 3.6
CCOC(=O)CCCCCn1cnc2c1NC=NCC2O (centres undefined) | 3
CCOC(=O)C(CCCCn1cnc2c1NC=NCC2O)c1ccccc1 (centres undefined) | > 7.5
O=C(O)C(CCCCn1cnc2c1N=CNCC2O)c1ccccc1 (centres undefined) | > 7.5
OCCCn1cnc2c1N=CNCC2O (centres undefined) | > 7.5
CCCn1cnc2c1NC=NCC2O (centres undefined) | > 20
O=C(O)C(CCCCn1cnc2c1NC=NCC2O)Cc1ccc(Br)cc1 (centres undefined) | > 7.5
CCOC(=O)C(CCCCn1cnc2c1NC=NCC2O)Cc1cccc(Br)c1 (centres undefined) | > 7.5
CCCCn1cnc2c1NC=NCC2O (centres undefined) | 17
O=C(O)CCCOCn1cnc2c1NC=NCC2O (centres undefined) | > 500
CCCCCCCCn1cnc2c1N=CNCC2O (centres undefined) | 0.45
CC(C)(CCCCn1cnc2c1NC=NCC2O)C(=O)O (centres undefined) | > 7.5
N#CCCCn1cnc2c1N=CNCC2O (centres undefined) | > 7.5
CCn1cnc2c1NC=NCC2O (centres undefined) | 28
OCCCCCn1cnc2c1NC=NCC2O (centres undefined) | 4.7
O=P(O)(O)CCCCCCn1cnc2c1N=CNCC2O (centres undefined) | > 7.5
CCOC(=O)C(CCCCn1cnc2c1NC=NCC2O)c1cccc(Br)c1 (centres undefined) | > 7.5
N#CCCCCn1cnc2c1N=CNCC2O (centres undefined) | 14
O=P(O)(O)CCCCCn1cnc2c1NC=NCC2O (centres undefined) | > 500
O=C(O)C(CCCCn1cnc2c1NC=NCC2O)Cc1ccccc1 (centres undefined) | > 1000
O=C(O)C(CCCCn1cnc2c1N=CNCC2O)Cc1ccccc1Br (centres undefined) | > 7.5

Structure (SMILES) | Ki [µM]
OC1CN=CNc2c1ncn2CCCCCc1nnn[nH]1 (centres undefined) | > 7.5
O=C(O)CCCCn1cnc2c1NC=NCC2O (centres undefined) | > 7.5
COP(=O)(O)CCCCCCn1cnc2c1NC=NCC2O (centres undefined) | > 500
OCCn1cnc2c1NC=NCC2O (centres undefined) | > 7.5
N#CCCCCCCn1cnc2c1NC=NCC2O (centres undefined) | 1
NC(=O)CCCCCn1cnc2c1NC=NCC2O (centres undefined) | 5.9
O=C(O)CCCCCn1cnc2c1N=CNCC2O (centres undefined) | 280
O=C(O)CCCCCCn1cnc2c1N=CNCC2O (centres undefined) | 250
O=C(O)C(CCCCn1cnc2c1NC=NCC2O)Cc1ccc(Cl)cc1 (centres undefined) | > 7.5
COC(=O)CCCCn1cnc2c1N=CNCC2O (centres undefined) | 3.5
OCCCCn1cnc2c1N=CNCC2O (centres undefined) | 6.3
OC1CN=CNc2c1ncn2Cc1ccccc1 (centres undefined) | 6
CCOC(=O)C(C)(CCCCn1cnc2c1NC=NCC2O)Cc1cccc(Br)c1 (centres undefined) | > 7.5
O=C(O)C1(CCCCn2cnc3c2N=CNCC3O)Cc2ccccc2C1 (centres undefined) | > 7.5
O=C(O)C(CCCCn1cnc2c1N=CNCC2O)c1cccc(Br)c1 (centres undefined) | > 7.5
O=C(O)C(CCCCn1cnc2c1NC=NCC2O)Cc1cccc(Br)c1 (centres undefined) | > 7.5
O=C(O)CCCCCCCn1cnc2c1NC=NCC2O (centres undefined) | > 7.5
COC(=O)CCCCCCCn1cnc2c1N=CNCC2O (centres undefined) | 0.95
CC(C)CC(CCCCn1cnc2c1NC=NCC2O)(CC(C)C)C(=O)O (centres undefined) | 120
O=C(O)C(CCCCn1cnc2c1N=CNCC2O)Cc1cccc(Cl)c1 (centres undefined) | > 7.5
CC(CCCCn1cnc2c1N=CNCC2O)(Cc1cccc(Br)c1)C(=O)O (stereo in doubt; 7v) | > 7.5
CC(CCCCn1cnc2c1N=CNCC2O)(Cc1cccc(Br)c1)C(=O)O (stereo in doubt; 7w) | > 7.5
